Assay results as given in patent US20200179428A1, “CYCLIC PHOSPHATE SUBSTITUTED NUCLEOSIDE DERIVATIVES AND METHODS OF USE THEREOF FOR THE TREATMENT OF VIRAL DISEASES” (priority 2016, published 2020).
pEC50: −log10 of the molar value. Where two headings read alike, the source gives them in different places.

Tests used:
[1] = Cytotoxicity MTS assay (CellTiter 96 Aqueous One Solution) in replicon cells; type: cell-based; conditions: EDU, read-out: CC50 (EDU) Range; for CC50 at 3 days: HCV replicon cells (1b-Con1)
Procedure: (§1) To measure cell-based anti-HCV activity of the compounds of the present invention, replicon cells (1b-Con1) are seeded at 5000 cells/well in 96-well plates one day prior to treatment with a compound of the invention. Various concentrations of a test compound of the invention in DMSO are then added to the replicon cells, with the final concentration of DMSO at 0.5% and fetal bovine serum at 10% in the assay media. Cells are harvested three days post-dosing, and the replicon RNA level is determined using real-time RT-PCR (Taqman assay) with GAPDH RNA as endogenous control. EC50 values are calculated from experiments with 10 serial twofold dilutions of the inhibitor in triplicate. To measure cytotoxicity in replicon cells of an inhibitor, an MTS assay is performed according to the manufacturer's protocol for CellTiter 96 Aqueous One Solution Cell Proliferation Assay (Promega, Cat # G3580) three days post dosing on cells treated identically as in replicon activity assays. […] Cytotoxicity in other types of cells may be measured using the same MTS protocol.

replicon cells (1b-Con1) = assay: Replicon activity assay (replicon RNA level by real-time RT-PCR, Taqman); type: cell-based; conditions: HCV replicon genotype 1b, read-out: EC50 (1b) Range
Procedure: as §1

C#C[C@]1(C)[C@@H]2OP(=O)(OCCC(C)C(=O)OC3CCCC3)OC[C@H]2O[C@H]1n1ccc(=O)[nH]c1=O (single isomer, unassigned) [Compound 2B]
CC50 at 3 days [1]: > 50 µM | pEC50 (replicon cells (1b-Con1); Hepatitis C virus): ≥ 6.60

C#C[C@]1(C)[C@@H]2OP(=O)(OCC(C)CC(=O)OC3CCCC3)OC[C@H]2O[C@H]1n1ccc(=O)[nH]c1=O (single isomer, unassigned) [Compound 3A]
CC50 at 3 days [1]: > 50 µM | pEC50 (replicon cells (1b-Con1)): < 5.00

CCOC(=O)C(C)CCOP1(=O)OC[C@H]2O[C@@H](n3ccc(=O)[nH]c3=O)[C@](C)(N)[C@@H]2O1 (single isomer, unassigned) [Compound 5A]
CC50 at 3 days [1]: > 50 µM | pEC50 (replicon cells (1b-Con1)): 5.00 to 6.00

C#C[C@]1(C)[C@@H]2OP(=O)(OCC(C)CC(=O)OC(C)C)OC[C@H]2O[C@H]1n1ccc(=O)[nH]c1=O (single isomer, unassigned) [Compound 6A]
CC50 at 3 days [1]: > 50 µM | pEC50 (replicon cells (1b-Con1)): 5.00 to 6.00

C#C[C@@]1(O)[C@@H]2OP(=O)(OCC[C@@H](C)C(=O)OC(C)C)OC[C@H]2O[C@H]1n1ccc(=O)[nH]c1=O (single isomer, unassigned) [Compound 7A1]
CC50 at 3 days [1]: > 50 µM | pEC50 (replicon cells (1b-Con1); Hepatitis C virus): 6.00 to 6.60

C#C[C@@]1(O)[C@@H]2OP(=O)(OCC[C@H](C)C(=O)OC(C)C)OC[C@H]2O[C@H]1n1ccc(=O)[nH]c1=O (single isomer, unassigned) [Compound 7A2]
CC50 at 3 days [1]: > 50 µM | pEC50 (replicon cells (1b-Con1)): 6.00 to 6.60

C#C[C@@]1(O)[C@@H]2OP(=O)(OCC[C@H](C)C(=O)OC3CCCC3)OC[C@H]2O[C@H]1n1ccc(=O)[nH]c1=O (single isomer, unassigned) [Compound 8A1]
CC50 at 3 days [1]: > 50 µM | pEC50 (replicon cells (1b-Con1); Hepatitis C virus): 6.00 to 6.60

C#C[C@@]1(O)[C@@H]2OP(=O)(OCCC(C)C(=O)OC3CCCC3)OC[C@H]2O[C@H]1n1ccc(=O)[nH]c1=O (single isomer, unassigned) [Compound 8A]
CC50 at 3 days [1]: > 50 µM | pEC50 (replicon cells (1b-Con1); Hepatitis C virus): 6.00 to 6.60

CC(C)OC(=O)C(C)CCOP1(=O)OC[C@H]2O[C@@H](n3ccc(=O)[nH]c3=O)[C@](C)(N)[C@@H]2O1 (single isomer, unassigned) [Compound 10A1]
CC50 at 3 days [1]: > 50 µM | pEC50 (replicon cells (1b-Con1); Hepatitis C virus): < 5.00

CC(CCOP1(=O)OC[C@H]2O[C@@H](n3ccc(=O)[nH]c3=O)[C@](C)(N)[C@@H]2O1)C(=O)OC1CCCC1 (single isomer, unassigned) [Compound 14A1]
CC50 at 3 days [1]: > 50 µM | pEC50 (replicon cells (1b-Con1)): < 5.00

CC(C)OC(=O)C(C)CCOP1(=O)OC[C@H]2O[C@@H](n3cnc4c(N)ncnc43)[C@](C)(Cl)[C@@H]2O1 (single isomer, unassigned) [Compound 35A1]
CC50 at 3 days [1]: > 50 µM | pEC50 (replicon cells (1b-Con1); Hepatitis C virus): ≥ 6.60

CC(C)OC(=O)[C@@H](C)CCOP1(=O)OC[C@H]2O[C@@H](n3cnc4c(N)ncnc43)[C@](C)(Cl)[C@@H]2O1 (single isomer, unassigned) [Compound 35A2]
CC50 at 3 days [1]: > 50 µM | pEC50 (replicon cells (1b-Con1); Hepatitis C virus): ≥ 6.60

C#C[C@]1(C)[C@@H]2OP(=O)(OCCC(C(=O)OC(C)C)C(=O)OC(C)C)OC[C@H]2O[C@H]1n1ccc(=O)[nH]c1=O (single isomer, unassigned) [Compound 36A]
CC50 at 3 days [1]: > 50 µM | pEC50 (replicon cells (1b-Con1)): 6.00 to 6.60

CC(C)OC(=O)[C@@H](C)CCOP1(=O)OC[C@H]2O[C@@H](n3ccc(=O)[nH]c3=O)[C@](C)(Cl)[C@@H]2O1 (single isomer, unassigned) [Compound 39A1]
CC50 at 3 days [1]: > 50 µM | pEC50 (replicon cells (1b-Con1); Hepatitis C virus): ≥ 6.60

CC(C)OC(=O)C(C)CCOP1(=O)OC[C@H]2O[C@@H](n3ccc(=O)[nH]c3=O)[C@](C)(Cl)[C@@H]2O1 (single isomer, unassigned) [Compound 39B1]
CC50 at 3 days [1]: > 50 µM | pEC50 (replicon cells (1b-Con1); Hepatitis C virus): ≥ 6.60

C#C[C@]1(C)[C@@H]2OP(=O)(OCCC(C)C(=O)OC(C)C)OC[C@H]2O[C@H]1n1ccc(=O)[nH]c1=O (some centres unmarked) [Compound 1A]
CC50 [1]: > 50 µM | pEC50 (replicon cells (1b-Con1); Hepatitis C virus): 5.00 to 6.00

C#C[C@]1(C)[C@@H]2OP(=O)(OCCC(C)C(=O)OC3CCCC3)OC[C@H]2O[C@H]1n1ccc(=O)[nH]c1=O (some centres unmarked) [Compound 2A]
CC50 at 3 days [1]: > 50 µM | pEC50 (replicon cells (1b-Con1); Hepatitis C virus): 5.00 to 6.00

C#C[C@]1(C)[C@@H]2OP(=O)(OCC(C)CC(=O)OC(C)C)OC[C@H]2O[C@H]1n1ccc(=O)[nH]c1=O (some centres unmarked) [Compound 6B]
CC50 at 3 days [1]: > 50 µM | pEC50 (replicon cells (1b-Con1); Hepatitis C virus): 5.00 to 6.00

C#C[C@@]1(O)[C@@H]2OP(=O)(OCCC(C)C(=O)OC(C)C)OC[C@H]2O[C@H]1n1ccc(=O)[nH]c1=O (some centres unmarked) [Compound 7A]
CC50 [1]: > 50 µM | pEC50 (replicon cells (1b-Con1); Hepatitis C virus): 6.00 to 6.60

CC(C)OC(=O)C(C)CCOP1(=O)OC[C@H]2O[C@@H](n3ccc(=O)[nH]c3=O)[C@](C)(N)[C@@H]2O1 (some centres unmarked) [Compound 10A]
CC50 at 3 days [1]: > 50 µM | pEC50 (replicon cells (1b-Con1); Hepatitis C virus): < 5.00

CC(CCOP1(=O)OC[C@H]2O[C@@H](n3ccc(=O)[nH]c3=O)[C@](C)(N)[C@@H]2O1)C(=O)OC1CCCC1 (some centres unmarked) [Compound 14A]
CC50 at 3 days [1]: > 50 µM | pEC50 (replicon cells (1b-Con1); Hepatitis C virus): < 5.00

CC(C)OC(=O)C(C)(C)CO[P@@]1(=O)OC[C@H]2O[C@@H](n3ccc(=O)[nH]c3=O)[C@](C)(N)[C@@H]2O1 [Compound 15A]
CC50 at 3 days [1]: > 50 µM | pEC50 (replicon cells (1b-Con1); Hepatitis C virus): < 5.00

CC(C)OC(=O)C(C)(C)CO[P@]1(=O)OC[C@H]2O[C@@H](n3ccc(=O)[nH]c3=O)[C@](C)(N)[C@@H]2O1 [Compound 15B]
CC50 at 3 days [1]: > 50 µM | pEC50 (replicon cells (1b-Con1); Hepatitis C virus): < 5.00

CC(C)OC(=O)C(C)(C)CO[P@@]1(=O)OC[C@H]2O[C@@H](n3ccc(=O)[nH]c3=O)[C@](C)(C#N)[C@@H]2O1 [Compound 16A]
CC50 at 3 days [1]: > 50 µM | pEC50 (replicon cells (1b-Con1); Hepatitis C virus): < 5.00

CC(C)OC(=O)C(C)(C)CO[P@]1(=O)OC[C@H]2O[C@@H](n3ccc(=O)[nH]c3=O)[C@](C)(C#N)[C@@H]2O1 [Compound 16B]
CC50 at 3 days [1]: > 50 µM | pEC50 (replicon cells (1b-Con1); Hepatitis C virus): < 5.00

CC(C)OC(=O)CC(C)(C)CO[P@@]1(=O)OC[C@H]2O[C@@H](n3ccc(=O)[nH]c3=O)[C@](C)(N)[C@@H]2O1 [Compound 17A]
CC50 at 3 days [1]: > 50 µM | pEC50 (replicon cells (1b-Con1); Hepatitis C virus): < 5.00

CC(C)OC(=O)CC(C)(C)CO[P@]1(=O)OC[C@H]2O[C@@H](n3ccc(=O)[nH]c3=O)[C@](C)(N)[C@@H]2O1 [Compound 17B]
CC50 at 3 days [1]: > 50 µM | pEC50 (replicon cells (1b-Con1); Hepatitis C virus): < 5.00

CCC(CCO[P@@]1(=O)OC[C@H]2O[C@@H](n3ccc(=O)[nH]c3=O)[C@](C)(N)[C@@H]2O1)C(=O)OC1CCCC1 (some centres unmarked) [Compound 25A]
pEC50 (replicon cells (1b-Con1); Hepatitis C virus): < 5.00

CCC(CCO[P@]1(=O)OC[C@H]2O[C@@H](n3ccc(=O)[nH]c3=O)[C@](C)(N)[C@@H]2O1)C(=O)OC1CCCC1 (some centres unmarked) [Compound 25B]
pEC50 (replicon cells (1b-Con1); Hepatitis C virus): < 5.00

CC(=O)O[C@H](CO[P@@]1(=O)OC[C@H]2O[C@@H](n3ccc(=O)[nH]c3=O)[C@](C)(N)[C@@H]2O1)CC(=O)OC(C)C [Compound 52A]
pEC50 (replicon cells (1b-Con1); Hepatitis C virus): < 5.00

CC(=O)O[C@H](CO[P@]1(=O)OC[C@H]2O[C@@H](n3ccc(=O)[nH]c3=O)[C@](C)(N)[C@@H]2O1)CC(=O)OC(C)C [Compound 52B]
pEC50 (replicon cells (1b-Con1); Hepatitis C virus): < 5.00

CC(=O)O[C@H](C(=O)OC(C)C)[C@@H](CO[P@@]1(=O)OC[C@H]2O[C@@H](n3ccc(=O)[nH]c3=O)[C@](C)(N)[C@@H]2O1)OC(C)=O [Compound 53A]
pEC50 (replicon cells (1b-Con1); Hepatitis C virus): < 5.00

C#C[C@]1(C)[C@@H]2O[P@@](=O)(OC[C@H](CC(=O)OC(C)C)OC(C)=O)OC[C@H]2O[C@H]1n1ccc(=O)[nH]c1=O [Compound 55A]
pEC50 (replicon cells (1b-Con1); Hepatitis C virus): < 5.00

C#C[C@]1(C)[C@@H]2O[P@](=O)(OC[C@H](CC(=O)OC(C)C)OC(C)=O)OC[C@H]2O[C@H]1n1ccc(=O)[nH]c1=O [Compound 55B]
pEC50 (replicon cells (1b-Con1); Hepatitis C virus): < 5.00

CC(C)OC(=O)[C@@H](C)CCO[P@@]1(=O)OC[C@H]2O[C@@H](n3ccc4c(N)ncnc43)[C@](C)(Cl)[C@@H]2O1 [Compound 80A]
pEC50 (replicon cells (1b-Con1); Hepatitis C virus): < 5.00

CC(C)OC(=O)[C@@H](C)CCO[P@]1(=O)OC[C@H]2O[C@@H](n3ccc4c(N)ncnc43)[C@](C)(Cl)[C@@H]2O1 [Compound 80B]
pEC50 (replicon cells (1b-Con1); Hepatitis C virus): 5.00 to 6.00

CC(C)OC(=O)[C@H](C)CCO[P@@]1(=O)OC[C@H]2O[C@@H](n3cc(F)c4c(N)ncnc43)[C@](C)(Cl)[C@@H]2O1 [Compound 81A]
pEC50 (replicon cells (1b-Con1); Hepatitis C virus): < 5.00

CC(C)OC(=O)[C@H](C)CCO[P@]1(=O)OC[C@H]2O[C@@H](n3cc(F)c4c(N)ncnc43)[C@](C)(Cl)[C@@H]2O1 [Compound 81B]
pEC50 (replicon cells (1b-Con1); Hepatitis C virus): < 5.00

CC(C)OC(=O)[C@@H](C)CCO[P@@]1(=O)OC[C@H]2O[C@@H](n3cc(F)c4c(N)ncnc43)[C@](C)(Cl)[C@@H]2O1 [Compound 82A]
pEC50 (replicon cells (1b-Con1); Hepatitis C virus): < 5.00

CC(C)OC(=O)[C@H](C)CCO[P@]1(=O)OC[C@H]2O[C@@H](n3cc(F)c4c(N)ncnc43)[C@](C)(Cl)[C@@H]2O1 [Compound 82B]
pEC50 (replicon cells (1b-Con1)): < 5.00

CC(C)OC(=O)[C@H](C)CCOP1(=O)OC[C@@]2(F)O[C@@H](n3ccc(=O)[nH]c3=O)[C@](C)(F)[C@@H]2O1 (some centres unmarked) [Compound 87A]
pEC50 (replicon cells (1b-Con1); Hepatitis C virus): ≥ 6.60
